Measured values reported in publication PMC6829517 (International Journal of Molecular Sciences, 2019).
≈ marks a conversion by molar mass, not a printed value. Entries after “also recorded” stand apart in the source; their conditions may differ. Where two headings read alike, the source gives them in different places. Positions of bridges follow the written chain, without caps; N, C: chain ends. Non-standard residues stand in square brackets, D forms with d. Residues, ends and D or L forms follow the SMILES beside them.

Legend:
pepsin [1] = target: pepsin (Sus scrofa, UniProt P00791); details: for Hydrolysis by pepsin at 37 °C: pepsin 1 mg/mL in HCl 0.01 M, pH 2, 37 °C, several hours, LC-MS; for Cleavage by pepsin at 50 °C: pH 2, 50 °C, 19 h, RP-HPLC
pepsin (Sus scrofa, UniProt P00791), sequence (P00791 60-385): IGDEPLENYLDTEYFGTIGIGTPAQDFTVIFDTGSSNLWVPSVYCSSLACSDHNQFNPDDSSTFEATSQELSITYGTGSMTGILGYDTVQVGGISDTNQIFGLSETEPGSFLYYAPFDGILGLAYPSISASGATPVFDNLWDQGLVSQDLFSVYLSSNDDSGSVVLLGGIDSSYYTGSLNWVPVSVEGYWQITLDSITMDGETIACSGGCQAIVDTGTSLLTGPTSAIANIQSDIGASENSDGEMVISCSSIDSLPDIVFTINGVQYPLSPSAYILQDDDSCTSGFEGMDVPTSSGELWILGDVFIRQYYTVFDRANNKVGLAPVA
Description: Materials and reagents. Methanol was purchased from Scharlau, while acetonitrile was obtained from SDS. NaOH, 2,2,2-trifluoroethanol, pepsin, thermolysin were obtained from Sigma-Aldrich, while carboxypeptidase Y was purchased from Alfa Aesar. E. coli BL21 (DE3), which was used for heterologous expression, was purchased from Invitrogen. Bacterial strains were isolated from clinical specimens in the Microbiology Service of the Hospital Universitari de Bellvitge (Spain).
Collistin sulfate was supplied by Zhejiang Shenghua Biok Biology Co. LTD, China. Mueller-Hinton Broth (MHB) was obtained from Scharlau (Spain). […]
Then, 30 µL of NaOH 0.5 M (pH 12) was added, and the mixture was stirred overnight at 40 °C. […]
Pepsin. Purified peptide (20 µg) was dissolved in 150 µL HCl 0.01 M (pH 2). 40 µL of pepsin solution in HCl 0.01 M (1 mg/mL) was added to the peptide solution and incubated for 2-20 h at […]

thermolysin [2] = target: T1, thermolysin (Bacillus thermoproteolyticus, UniProt P00800); assay: Thermolysin stability assay; format: in vitro ADME; details: thermolysin 1 mg/mL, 50 mM Tris pH 8, 0.5 mM CaCl2, 30 min at 70 °C, LC-MS; loss of 137 Da (Val11-Gly12)
T1 construct: purchased Sigma-Aldrich
T1 sequence (P00800 233-548): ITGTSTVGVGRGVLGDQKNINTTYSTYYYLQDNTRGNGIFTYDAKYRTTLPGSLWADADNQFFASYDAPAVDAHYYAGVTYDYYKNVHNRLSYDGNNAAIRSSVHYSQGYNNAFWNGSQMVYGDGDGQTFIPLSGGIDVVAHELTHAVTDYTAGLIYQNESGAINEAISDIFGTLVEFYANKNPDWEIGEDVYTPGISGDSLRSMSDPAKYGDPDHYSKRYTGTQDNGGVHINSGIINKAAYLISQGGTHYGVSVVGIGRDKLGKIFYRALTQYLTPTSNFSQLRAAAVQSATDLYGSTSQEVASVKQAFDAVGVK
Description: Materials and reagents. Methanol was purchased from Scharlau, while acetonitrile was obtained […]
while carboxypeptidase Y was purchased from Alfa Aesar. E. coli BL21 (DE3), which was used for heterologous expression, was purchased from Invitrogen. Bacterial strains were isolated from […]
Hinton Broth (MHB) was obtained from Scharlau (Spain).
10 µL of 0.5 M NaOH was added.
LC-MS. […] For the isolation and […]
in 400 µL of H 2O-ACN (1:1). […]
was stirred overnight at 40 °C.
MES, 1 mM CaCl 2 at pH 6.75).
The reaction was quenched by
Pepsin. […] 40 µL of pepsin
Figure S6. RP-HPLC chromatograms and ESI + spectra after 30 min of thermolysin treatment at 70 °C in 50 mM TRIS pH 8, 0.5 mM CaCl 2 buffer. a) New compound, b) native MccJ25 and c) co-injection of the two peptides after the thermolysin cleavage. Conditions: XBridge C18 2.5 µm (4.6 mm x 75 mm) reversed-phase analytical column; linear gradient from 30% to 60% of ACN over 8 […]

[3] = cited from earlier work
Description: (§1) Moreover, it is stable to highly denaturing conditions, such as 8 M urea and temperatures above 100 °C [6].

[4] = tested on: chymotrypsin, trypsin and pepsin; details: cited from earlier work
Description: as §1

pepsin [5] = details: cited from earlier work
trypsin = details: cited from earlier work
chymotrypsin = details: cited from earlier work
[6] = 0.5 M NaOH in H2O-ACN (1:1); details: 40 °C, up to 48 h
pepsin [7] = assay: pepsin solution in HCl 0.01 M (pH 2); details: 37 °C, up to 2-20 h
pepsin [8] = assay: pepsin, temperature increased to 50 °C; details: up to 19 h
thermolysin [9] = assay: thermolysin in 50 mM TRIS pH 8, 0.5 mM CaCl2 buffer; details: 70 °C, up to 30 min
carboxypeptidase Y = carboxypeptidase Y solution in MES buffer (50 mM MES, 1 mM CaCl2 at pH 6.75); details: 25 °C, up to 4 h
[10] = tested on: Salmonella enterica ATCC 13076; details: broth microdilution, MHB, 37 °C, 24 h, visual turbidity, triplicate
Description: (§2) MIC values were determined by the broth microdilution method and interpreted following the guidelines of the Clinical & Laboratory Standards Institute (CLSI) and European Committee on Antimicrobial Susceptibility Testing (EUCAST). The different strains were grown in Mueller-Hinton broth (MHB) overnight at 37 °C with shaking at 200 rpm. The bacterial cultures were then adjusted to OD625nm of 0.08–0.1 and diluted 1:100 in fresh MHB medium. Next, 5 µL of each diluted suspension was added to 96-well plates previously filled with MHB and serially diluted peptides. […] All experiments were performed in triplicate.

[11] = tested on: Salmonella enterica ATCC 49214; details: broth microdilution, MHB, 37 °C, 24 h, visual turbidity, triplicate
Description: as §2

[12] = tested on: Escherichia coli MDR 208691; format: cell-based; details: MDR 208691, 24 h
Description: (§3) All experiments were performed in triplicate.

[13] = tested on: Escherichia coli MDR 239910; format: cell-based; details: MDR 239910, 24 h
Description: as §3

[14] = tested on: Escherichia coli MDR 39255; format: cell-based; details: MDR 39255, 24 h
Description: as §3

[15] = tested on: Salmonella typhimurium SY5015; format: cell-based; details: murium SY5015, 24 h
Description: as §3

Bacterial biofilms = assay: Minimal biofilm eradication concentration (MBEC); format: cell-based; details: in all cases; peg-lid biofilms, MHBCA, 24 h exposure at 37 °C, OD 620 nm, triplicate
Description: MBEC was determined as described by Moskowitz et al.. Bacterial biofilms were formed by immersing the pegs of a modified polystyrene microtiter lid into 96-well microtiter plates, each containing 200 µL of Muller-Hinton broth cation adjusted (MHBCA), followed by incubation at 37 °C for 24 h. Pegs were then gently rinsed in a 0.9% w/v NaCl solution and biofilms were exposed to a range of concentrations of antimicrobials for 24 h at 37 °C. Pegs were again rinsed with a 0.9% w/v NaCl solution and biofilms were removed by 10 min sonication. Recovered bacteria were incubated for 24 h at 37 °C. Optical densities at 620 nm were measured in order to determine MBEC values, defined as the lowest concentration of antimicrobial that prevented bacterial regrowth from the treated biofilm. All experiments were performed in triplicate.

[16] = tested on: Escherichia coli MDR 246415; format: cell-based; details: MDR 246415, 24 h
Description: as §3

[17] = tested on: eight Gram-negative strains; assay: MIC, broth microdilution; format: cell-based; details: all eight strains tested; summary of Table 1
Description: as §3

not cleaved (pepsin [8])	cleaved bond (thermolysin [9])	cleaved bond (carboxypeptidase Y)	Compound	Hydrolysis by pepsin at 37 °C (pepsin [1])	Cleavage by pepsin at 50 °C (pepsin [1])	Outcome of thermolysin treatment (thermolysin [2])	not cleaved (pepsin [7])	Minimum inhibitory concentration (MIC) [12] [µg/mL]	Minimum inhibitory concentration (MIC) [13] [µg/mL]	Minimum inhibitory concentration (MIC) [14] [µg/mL]	Minimum inhibitory concentration (MIC) [15] [µg/mL]	Minimal biofilm eradication concentration (MBEC) (Bacterial biofilms)	further results
			CC[C@H](C)[C@H](NC(=O)CNC(=O)[C@@H](NC(=O)[C@H](Cc1ccccc1)NC(=O)[C@H](Cc1ccc(O)cc1)NC(=O)[C@@H]1CCC(=O)NCC(=O)NCC(=O)N[C@@H](C)C(=O)NCC(=O)N[C@@H](Cc2cnc[nH]2)C(=O)N[C@@H](C(C)C)C(=O)N2CCC[C@H]2C(=O)N1)C(C)C)C(=O)NCC(=O)N[C@H](C(=O)N1CCC[C@H]1C(=O)N[C@H](C(=O)N[C@@H](CO)C(=O)N[C@@H](Cc1ccccc1)C(=O)N[C@@H](Cc1ccc(O)cc1)C(=O)NCC(=O)O)[C@@H](C)CC)[C@@H](C)O [Native MccJ25, Microcin J25] (GGAGHVPEYFVGIGTPISFYG-OH; lactam N-8)	no hydrolysis was observed	no cleavage was detected	double cleavage between Phe10-Val11 and Gly12-Ile13							Stability to highly denaturing conditions [3]: stable; Thermal and proteolytic stability against several proteases [4]: high thermal and proteolytic stability
no cleavage was detected after 19 h	Gly12-Ile13; also recorded: Phe10-Val11	Phe10-Val11; also recorded: Val11-Gly12	GGAGHVPEYFVGIGTPISFYG [MccJ25]				no hydrolysis was observed, even after several hours at pH 2 at 37 °C						not cleaved (pepsin [5]): high thermal and proteolytic stability; not cleaved (trypsin): high thermal and proteolytic stability; not cleaved (chymotrypsin): high thermal and proteolytic stability; fragment found [6]: new compound (epimerization of Val11)
			CC[C@H](C)[C@H](NC(=O)CNC(=O)[C@@H](NC(=O)[C@H](Cc1ccccc1)NC(=O)[C@H](Cc1ccc(O)cc1)NC(=O)[C@@H]1CCC(=O)NCC(=O)NCC(=O)N[C@@H](C)C(=O)NCC(=O)N[C@@H](Cc2c[nH]cn2)C(=O)N[C@@H](C(C)C)C(=O)N2CCC[C@H]2C(=O)N1)C(C)C)C(=O)NCC(=O)N[C@H](C(=O)N1CCC[C@H]1C(=O)N[C@H](C(=O)N[C@@H](CO)C(=O)N[C@@H](Cc1ccccc1)C(=O)N[C@@H](Cc1ccc(O)cc1)C(=O)NCC(=O)O)[C@@H](C)CC)[C@@H](C)O [Native MccJ25, Microcin J25] (GGAGHVPEYFVGIGTPISFYG-OH; lactam N-8)					>128	>128	0.5 (≈ 0.237 µM)	>128	greater than 128 μg/mL	Minimum inhibitory concentration (MIC) [10]: <0.0625 µg/mL; Minimum inhibitory concentration (MIC) [11]: 0.8 µg/mL (≈ 0.38 µM)
no cleavage was detected after 19 h	Phe10-Val11; also recorded: Gly12-Ile13	Phe10-Val11; also recorded: Val11-Gly12	GGAGHVPEYFVGIGTPISFYG [new compound]				no hydrolysis was observed, even after several hours at pH 2 at 37 °C						
			CC[C@H](C)[C@H](NC(=O)CNC(=O)[C@H](NC(=O)[C@H](Cc1ccccc1)NC(=O)[C@H](Cc1ccc(O)cc1)NC(=O)[C@@H]1CCC(=O)NCC(=O)NCC(=O)N[C@@H](C)C(=O)NCC(=O)N[C@@H](Cc2c[nH]cn2)C(=O)N[C@@H](C(C)C)C(=O)N2CCC[C@H]2C(=O)N1)C(C)C)C(=O)NCC(=O)N[C@H](C(=O)N1CCC[C@H]1C(=O)N[C@H](C(=O)N[C@@H](CO)C(=O)N[C@@H](Cc1ccccc1)C(=O)N[C@@H](Cc1ccc(O)cc1)C(=O)NCC(=O)O)[C@@H](C)CC)[C@@H](C)O [New Compound] (GGAGHVPEYF[dV]GIGTPISFYG-OH; lactam N-8)	no hydrolysis was observed	no cleavage was detected	double cleavage between Phe10-Val11 and Gly12-Ile13		>128	>128	>256	>128	greater than 128 μg/mL	Minimum inhibitory concentration (MIC) [16]: >128 µg/mL; MIC values in all cases [17]: higher than 128 μg/mL
